Reference: patent publication US8063071B2 (GlaxoSmithKline, LLC, priority 2007, dated 2011)
Counter-ions that a name gives are not always drawn.

Key:
[1] = target: T1, Recombinant human IKKβ (residues 1-737) (Homo sapiens, UniProt O14920); assay: IKK2 assay (TR-FRET); assay type: biochemical; conditions: ATP 1 μM final, read-out: pIC50 against IKK2 (converted)
T1 construct: Recombinant human IKKβ (residues 1-737); GST (C); made in house
T1 sequence (O14920 1-737): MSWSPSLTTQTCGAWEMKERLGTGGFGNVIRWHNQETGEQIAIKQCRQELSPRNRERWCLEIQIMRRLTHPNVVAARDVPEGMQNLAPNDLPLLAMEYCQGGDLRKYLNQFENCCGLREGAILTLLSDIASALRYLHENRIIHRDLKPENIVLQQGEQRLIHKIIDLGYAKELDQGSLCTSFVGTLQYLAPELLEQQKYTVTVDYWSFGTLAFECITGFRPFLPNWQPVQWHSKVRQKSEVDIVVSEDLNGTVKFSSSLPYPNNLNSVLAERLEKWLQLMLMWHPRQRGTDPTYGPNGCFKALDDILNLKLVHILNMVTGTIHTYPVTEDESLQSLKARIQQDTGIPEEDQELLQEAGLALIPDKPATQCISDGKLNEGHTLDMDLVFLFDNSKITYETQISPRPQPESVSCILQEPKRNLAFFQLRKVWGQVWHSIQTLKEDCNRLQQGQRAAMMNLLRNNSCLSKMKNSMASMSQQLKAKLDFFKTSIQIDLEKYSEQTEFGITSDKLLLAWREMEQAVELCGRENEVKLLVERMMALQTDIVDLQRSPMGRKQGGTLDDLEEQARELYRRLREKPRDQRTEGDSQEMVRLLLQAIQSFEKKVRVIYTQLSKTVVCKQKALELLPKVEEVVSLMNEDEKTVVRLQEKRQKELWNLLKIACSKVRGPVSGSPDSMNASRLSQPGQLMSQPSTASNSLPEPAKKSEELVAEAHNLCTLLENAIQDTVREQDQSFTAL
In short: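 Baculovirus-expressed C-terminal GST-tagged IKKβ (0.5-5 nM final) in HEPES pH 7.4, MgCl2, CHAPS, DTT, BSA with 1.7% DMSO; 25 nM GST-IB substrate and 1 μM ATP, 15 min at room temperature. EDTA stop; phospho-Ser32/36 detected by Eu-antibody/APC-anti-GST TR-FRET, 665/620 nm ratio.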

[2] = system: human monocyte stimulated cytokine production (TNF-α); assay: Monocyte assay (LPS-stimulated TNF-α production); assay type: cell-based; conditions: for IC50: 24 h, 200 ng/mL LPS, TNF-α by ELISA; for inhibition at 0.3 µM: read-out: inhibition at 300 nM in the monocyte assay
Description: Effect of IKK-β inhibition on human monocyte stimulated cytokine production was assessed as follows: Monocytes were isolated from heparinized whole blood by Ficoll gradient, followed by purification of CD14+ cells using MACS magnetic cell separation beads. Isolated monocytes were then adhered to 96-well culture plates at 1×10^6 cells/mL in RPMI 1640 10% FBS (JRH Biosciences, Lenexa Kans.) for 2 h. Test compounds are added to the wells 30 minutes prior to stimulation with a final vehicle concentration of 0.1% DMSO. Monocytes were activated by the addition of 200 ng/mL endotoxin (LPS; E. coli serotype 026:B6)(Sigma, St. Louis, Mo.) and incubated for 24 hrs at 37 C. Cell-free supernates were analyzed by ELISA for TNF-α using Pharmingen matched pair Abs. Viability of the cells was determined by 10% trypan blue exclusion.

SMILES	IC50 [1] [nM]	IC50 [2] [nM]	inhibition at 0.3 µM [2] [%]
CCS(=O)(=O)N1CCC(c2c[nH]c3c(C(N)=O)cc(-c4cccc(CN5CCCCC5)c4)cc23)CC1 [Example 1, 3-[1-(ethylsulfonyl)-4-piperidinyl]-5-[3-(1-piperidinylmethyl)phenyl]-1H-indole-7-carboxamide]	≤ 10000	≤ 1500	
CCS(=O)(=O)N1CCC(c2c[nH]c3c(C(N)=O)cc(-c4cccc(CN5CCNCC5)c4)cc23)CC1 [Example 2, 3-[1-(ethylsulfonyl)-4-piperidinyl]-5-[3-(1-piperazinylmethyl)phenyl]-1H-indole-7-carboxamide]	≤ 10000	≤ 1500	
CCS(=O)(=O)N1CCC(c2c[nH]c3c(C(N)=O)cc(-c4cccc(CN5CCOCC5)c4)cc23)CC1 [Example 3, 3-[1-(ethylsulfonyl)-4-piperidinyl]-5-[3-(4-morpholinylmethyl)phenyl]-1H-indole-7-carboxamide]	≤ 10000	≤ 1500	
CCS(=O)(=O)N1CCC(c2c[nH]c3c(C(N)=O)cc(-c4cccc(CN(C)CCS(C)(=O)=O)c4)cc23)CC1 [Example 4, 3-[1-(ethylsulfonyl)-4-piperidinyl]-5-[3-({methyl[2-(methylsulfonyl)ethyl]amino}methyl)phenyl]-1H-indole-7-carboxamide]	≤ 10000	> 1000	
CCS(=O)(=O)N1CCC(c2c[nH]c3c(C(N)=O)cc(-c4cccc(CN(C)CCN(C)C)c4)cc23)CC1 [Example 5, 5-(3-{[[2-(dimethylamino)ethyl](methyl)amino]methyl}phenyl)-3-[1-(ethylsulfonyl)-4-piperidinyl]-1H-indole-7-carboxamide]	≤ 10000	≤ 1500	
CCS(=O)(=O)N1CCC(c2c[nH]c3c(C(N)=O)cc(-c4cccc(CN5CCN(CCOCCO)CC5)c4)cc23)CC1 [Example 6, 3-[1-(ethylsulfonyl)-4-piperidinyl]-5-{3-[(4-{2-[(2-hydroxyethyl)oxy]ethyl}-1-Piperazinyl)methyl]phenyl}-1H-indole-7-carboxamide]	≤ 10000	≤ 1500	
CCS(=O)(=O)N1CCC(c2c[nH]c3c(C(N)=O)cc(-c4cccc(CN5CCCC(CO)C5)c4)cc23)CC1 (stereo not shown) [Example 7, 3-[1-(ethylsulfonyl)-4-piperidinyl]-5-(3-{[3-(hydroxymethyl)-1-piperidinyl]methyl}phenyl)-1H-indole-7-carboxamide]	≤ 10000	≤ 1500	
CCS(=O)(=O)N1CCC(c2c[nH]c3c(C(N)=O)cc(-c4cccc(CN(CCOC)CCOC)c4)cc23)CC1 [Example 8, 5-[3-({bis[2-(methyloxy)ethyl]amino}methyl)phenyl]-3-[1-(ethylsulfonyl)-4-piperidinyl]-1H-indole-7-carboxamide]	≤ 10000	≤ 1500	
CCS(=O)(=O)N1CCC(c2c[nH]c3c(C(N)=O)cc(-c4cccc(CN5CC(C)OC(C)C5)c4)cc23)CC1 (stereo not shown) [Example 9, 5-{3-[(2,6-dimethyl-4-morpholinyl)methyl]phenyl}-3-[1-(ethylsulfonyl)-4-piperidinyl]-1H-indole-7-carboxamide]	≤ 10000	≤ 1500	
CCS(=O)(=O)N1CCC(c2c[nH]c3c(C(N)=O)cc(-c4cccc(CN5CCCC5c5nccs5)c4)cc23)CC1 (stereo not shown) [Example 10, 3-[1-(ethylsulfonyl)-4-piperidinyl]-5-(3-{[2-(1,3-thiazol-2-yl)-1-pyrrolidinyl]methyl}phenyl)-1H-indole-7-carboxamide]	≤ 10000	≤ 1500	
CCS(=O)(=O)N1CCC(c2c[nH]c3c(C(N)=O)cc(-c4cccc(CN5CCCC5c5cccs5)c4)cc23)CC1 (stereo not shown) [Example 11, 3-[1-(ethylsulfonyl)-4-piperidinyl]-5-(3-{[2-(2-thienyl)-1-pyrrolidinyl]methyl}phenyl)-1H-indole-7-carboxamide]	≤ 10000	≤ 1500	
CCS(=O)(=O)N1CCC(c2c[nH]c3c(C(N)=O)cc(-c4ccc5c(c4)C(NCC(C)C)CCC5)cc23)CC1 (stereo not shown) [Example 34, 3-[1-(ethylsulfonyl)-4-piperidinyl]-5-{8-[(2-methylpropyl)amino]-5,6,7,8-tetrahydro-2-naphthalenyl}-1H-indole-7-carboxamide trifluoroacetate]		> 1000	
CCS(=O)(=O)N1CCC(c2c[nH]c3c(C(N)=O)cc(-c4cc(CNC(C)C)c5c(c4)OCC5)cc23)CC1 [Example 59, 3-[1-(ethylsulfonyl)-4-piperidinyl]-5-(4-{[(1-methylethyl)amino]methyl}-2,3-dihydro-1-benzofuran-6-yl)-1H-indole-7-carboxamide]			0 to 60
CCS(=O)(=O)N1CCC(c2c[nH]c3c(C(N)=O)cc(-c4csc(CN5CCCC5CC(C)C)c4)cc23)CC1 (stereo not shown) [Example 97, 3-[1-(ethylsulfonyl)-4-piperidinyl]-5-(5-{[2-(2-methylpropyl)-1-pyrrolidinyl]methyl}-3-thienyl)-1H-indole-7-carboxamide]			0 to 60
CCS(=O)(=O)N1CCC(c2c[nH]c3c(C(N)=O)cc(-c4csc(CNCC(C)(C)C)c4)cc23)CC1 [Example 117, 5-(5-{[(2,2-dimethylpropyl)amino]methyl}-3-thienyl)-3-[1-(ethylsulfonyl)-4-piperidinyl]-1H-indole-7-carboxamide trifluoroacetate]		≤ 1500	
CCS(=O)(=O)N1CCC(c2c[nH]c3c(C(N)=O)cc(-c4cccc(-n5cccn5)c4)cc23)CC1 [Example 164, 3-[1-(ethylsulfonyl)-4-piperidinyl]-5-[3-(1H-pyrazol-1-yl)phenyl]-1H-indole-7-carboxamide]		≤ 1500	
CCS(=O)(=O)N1CCC(c2c[nH]c3c(C(N)=O)cc(-c4cncc(CNCC5CC5)c4)cc23)CC1 [Example 173, 5-(5-{[(cyclopropylmethyl)amino]methyl}-3-pyridinyl)-3-[1-(ethylsulfonyl)-4-piperidinyl]-1H-indole-7-carboxamide]			0 to 60
CCCOCCCNCc1ccc(-c2cc(C(N)=O)c3[nH]cc(C4CCN(S(=O)(=O)CC)CC4)c3c2)s1 [Example 198, 3-[1-(ethylsulfonyl)-4-piperidinyl]-5-[5-({[3-(propyloxy)propyl]amino}methyl)-2-thienyl]-1H-indole-7-carboxamide]			0 to 60
CCS(=O)(=O)N1CCC(c2c[nH]c3c(C(N)=O)cc(-c4ccc(CNCC(C)C)s4)cc23)CC1 [Example 243, 3-[1-(ethylsulfonyl)-4-piperidinyl]-5-(5-{[(2-methylpropyl)amino]methyl}-2-thienyl)-1H-indole-7-carboxamide trifluoroacetate]		≤ 1500	
CCOCCN(C)Cc1cc(-c2cc(C(N)=O)c3[nH]cc(C4CCN(S(=O)(=O)CC)CC4)c3c2)cs1 [Example 403, 5-(5-{[[2-(ethyloxy)ethyl](methyl)amino]methyl}-3-thienyl)-3-[1-(ethylsulfonyl)-4-piperidinyl]-1H-indole-7-carboxamide]		≤ 1500	
CCS(=O)(=O)N1CCC(c2c[nH]c3c(C(N)=O)cc(-c4ccc5c(c4)CN(CC4CC4)C5)cc23)CC1 [Example 425, 5-[2-(cyclopropylmethyl)-2,3-dihydro-1H-isoindol-5-yl]-3-[1-(ethylsulfonyl)-4-piperidinyl]-1H-indole-7-carboxamide]	≤ 10000		
CCS(=O)(=O)N1CCC(c2c[nH]c3c(C(N)=O)cc(-c4ccc5c(c4)CN(CC(C)(C)C)C5)cc23)CC1 [Example 426, 5-[2-(2,2-dimethylpropyl)-2,3-dihydro-1H-isoindol-5-yl]-3-[1-(ethylsulfonyl)-4-piperidinyl]-1H-indole-7-carboxamide]	≤ 10000		
CCS(=O)(=O)N1CCC(c2c[nH]c3c(C(N)=O)cc(-c4ccc5c(c4)CN(C(=O)NS(=O)(=O)c4ccccc4)C5)cc23)CC1 [Example 428, 3-[1-(ethylsulfonyl)-4-piperidinyl]-5-(2-{[(phenylsulfonyl)amino]carbonyl}-2,3-dihydro-1H-isoindol-5-yl)-1H-indole-7-carboxamide]	≤ 10000		
